Results from patent US6673549B1, “Genes expressed in C3A liver cell cultures treated with steroids” (Incyte Corporation, priority 2000, dated 2004).
Several values for one entry are separate records, joined by “and”; a condition that tells them apart may be missing. Equal entries are not always repeated.

System: human C3A liver cells
Test: Microarray differential gene expression in human C3A liver cell cultures treated with steroids
Type: cell-based
Text: Incyte clones represent template sequences derived from the LWESEQ GOLD assembled human sequence database (Incyte Genomics). In cases where more than one clone was available for a particular template, the 5′-most clone in the template was used on the microarray. The HUMAN GENOME GEM series 1-4 microarrays (Incyte Genomics) contain 28,626 array elements which represent 10,068 annotated clusters and 18,558 unannotated clusters. For the UNIGEM series microarrays (Incyte Genomics), Incyte clones were mapped to non-redundant Unigene clusters (Unigene database (build 46), NCBI; Shuler (1997) J Mol Med 75:694-698), and the 5′ clone with the strongest BLAST alignment (at least 90% identity and 100 bp overlap) was chosen, verified, and used in the construction of the microarray. The UNIGEM V microarray (Incyte Genomics) contains 7075 array elements which represent 4610 annotated genes and 2,184 unannotated clusters.
To construct microarrays, cDNAs were amplified from bacterial cells using primers complementary to vector sequences flanking the cDNA insert. […] Amplified cDNAs were then purified using […]-400 columns (APB). Purified cDNAs were immobilized on polymer-coated glass slides. Glass microscope slides (Corning, Corning N.Y.) were cleaned by ultrasound in 0.1% SDS and acetone, with extensive distilled water washes between and after treatments. Glass slides were etched in 4% hydrofluoric acid (VWR Scientific Products, West Chester Pa.), washed thoroughly in distilled water, and coated with 0.05% aminopropyl silane (Sigma Aldrich) in 95% ethanol. Coated slides were cured in a 110° C. oven. cDNAs were applied to the coated glass substrate using a procedure described in U.S. Pat. No. 5,807,522. One microliter of the cDNA at an average concentration of 100 ng/μl was loaded into the open capillary printing element by a high-speed robotic apparatus which then deposited about 5 nl of cDNA per slide.
Microarrays were UV-crosslinked using a […] UV-crosslinker (Stratagene), and then washed at room temperature once in 0.2% SDS and three times in distilled water. Non-specific binding sites were blocked by incubation of microarrays in 0.2% casein in phosphate buffered saline (Tropix, Bedford Mich.) for 30 minutes at 60° C. followed by washes in 0.2% SDS and distilled water as before.
In all cases, mRNA from untreated early confluent C3A cells were prepared in parallel as described below.
Cells were harvested and lysed in 1 ml of TRIZOL reagent (5×10^6 cells/ml; Life Technologies). Lysates were vortexed thoroughly, incubated at room temperature for 2-3 minutes, and extracted with 0.5 ml chloroform. The extract was mixed, incubated at room temperature for 5 minutes, and centrifuged at 15,000 rpm for 15 minutes at 4° C. The aqueous layer was collected, and an equal volume of isopropanol was added. Samples were mixed, incubated at room temperature for 10 minutes, and centrifuged at 15,000 rpm for 20 minutes at 4° C. The supernatant was removed, and the RNA pellet was washed with 1 ml of 70% ethanol, centrifuged at 15,000 rpm at 4° C., and resuspended in RNAse-free water. The concentration of the RNA was determined by measuring the optical density at 260 nm.
Poly(A) RNA was prepared using an OLIGOTEX mRNA kit (Qiagen) with the following modifications: OLIGOTEX beads were washed in tubes instead of on spin columns, resuspended in elution buffer, and then loaded onto spin columns to recover mRNA. To obtain maximum yield, the mRNA was eluted twice.
Each poly(A) RNA sample was reverse transcribed using MMLV reverse-transcriptase, 0.05 pg/μl oligo-d(T) primer (21mer), 1× first strand buffer, 0.03 units/ul RNAse inhibitor, 500 uM dATP, 500 uM dGTP, 500 uM dTTP, 40 uM dCTP, and 40 uM either dCTP-Cy3 or dCTP-Cy5 (APB).

CCCC1O[C@@H]2C[C@H]3[C@@H]4CCC5=CC(=O)C=C[C@]5(C)[C@H]4[C@@H](O)C[C@]3(C)[C@]2(C(=O)CO)O1 (stereo partly drawn) [budesonide]
Ave DE [log2] (C3A treated with steroid) (Clone ID 380006): −1.05 log2
Ave DE [log2] (C3A treated with steroid) (Clone ID 517374): 1.04 log2
Ave DE [log2] (C3A treated with steroid) (Clone ID 615776): 1.06 log2
Ave DE [log2] (C3A treated with steroid) (Clone ID 622565): 1.20 log2
Ave DE [log2] (C3A treated with steroid) (Clone ID 654246): −1.08 log2
Ave DE [log2] (C3A treated with steroid) (Clone ID 686993): 0.51 log2
Ave DE [log2] (C3A treated with steroid) (Clone ID 689296): 1.08 log2 and 1.05 log2
Ave DE [log2] (C3A treated with steroid) (Clone ID 1401312): −1.09 log2
Ave DE [log2] (C3A treated with steroid) (Clone ID 1604437): 1.18 log2
Ave DE [log2] (C3A treated with steroid) (Clone ID 1611629): 1.19 log2
Ave DE [log2] (C3A treated with steroid) (Clone ID 1662870): −0.93 log2
Ave DE [log2] (C3A treated with steroid) (Clone ID 1679595): 1.10 log2
Ave DE [log2] (C3A treated with steroid) (Clone ID 1697719): −0.81 log2
Ave DE [log2] (C3A treated with steroid) (Clone ID 1716458): 1.24 log2
Ave DE [log2] (C3A treated with steroid) (Clone ID 1798594): 0.69 log2
Ave DE [log2] (C3A treated with steroid) (Clone ID 1823946): −1.10 log2
Ave DE [log2] (C3A treated with steroid) (Clone ID 1876829): −1.13 log2
Ave DE [log2] (C3A treated with steroid) (Clone ID 1930847): −1.09 log2
Ave DE [log2] (C3A treated with steroid) (Clone ID 1973123): −1.23 log2
Ave DE [log2] (C3A treated with steroid) (Clone ID 2057513): 1.13 log2
Ave DE [log2] (C3A treated with steroid) (Clone ID 2078880): −0.80 log2
Ave DE [log2] (C3A treated with steroid) (Clone ID 2170820): 1.17 log2
Ave DE [log2] (C3A treated with steroid) (Clone ID 2173973): 1.08 log2
Ave DE [log2] (C3A treated with steroid) (Clone ID 2189061): 0.15 log2
Ave DE [log2] (C3A treated with steroid) (Clone ID 2222155): 0.58 log2
Ave DE [log2] (C3A treated with steroid) (Clone ID 2227273): 1.05 log2
Ave DE [log2] (C3A treated with steroid) (Clone ID 2287724): −1.06 log2
Ave DE [log2] (C3A treated with steroid) (Clone ID 2343836): 0.93 log2
Ave DE [log2] (C3A treated with steroid) (Clone ID 2404746): 0.42 log2
Ave DE [log2] (C3A treated with steroid) (Clone ID 2482388): 1.19 log2
Ave DE [log2] (C3A treated with steroid) (Clone ID 2660756): 1.13 log2
Ave DE [log2] (C3A treated with steroid) (Clone ID 2687356): 1.26 log2
Ave DE [log2] (C3A treated with steroid) (Clone ID 2703282): −1.01 log2
Ave DE [log2] (C3A treated with steroid) (Clone ID 3139631): −0.97 log2
Ave DE [log2] (C3A treated with steroid) (Clone ID 3229449): 0.39 log2
Ave DE [log2] (C3A treated with steroid) (Clone ID 3408804): −1.24 log2
Ave DE [log2] (C3A treated with steroid) (Clone ID 3426776): 0.61 log2
Ave DE [log2] (C3A treated with steroid) (Clone ID 3449615): 1.05 log2
Ave DE [log2] (C3A treated with steroid) (Clone ID 3497137): −0.94 log2
Ave DE [log2] (C3A treated with steroid) (Clone ID 3687607): 1.17 log2
Ave DE [log2] (C3A treated with steroid) (Clone ID 3721985): −1.10 log2
Ave DE [log2] (C3A treated with steroid) (Clone ID 3770530): −0.98 log2
Ave DE [log2] (C3A treated with steroid) (Clone ID 3973687): 1.31 log2
Ave DE [log2] (C3A treated with steroid) (Clone ID 4089291): −1.00 log2
Ave DE [log2] (C3A treated with steroid) (Clone ID 4215034): 1.20 log2
Ave DE [log2] (C3A treated with steroid) (Clone ID 4252872): 1.24 log2
Ave DE [log2] (C3A treated with steroid) (Clone ID 4403805): 1.12 log2
Ave DE [log2] (C3A treated with steroid) (Clone ID 4630674): 0.97 log2
Ave DE [log2] (C3A treated with steroid) (Clone ID 4855265): 1.14 log2
Ave DE [log2] (C3A treated with steroid) (Clone ID 4863677): 1.11 log2
Ave DE [log2] (C3A treated with steroid) (Clone ID 5038177): 0.57 log2
Ave DE [log2] (C3A treated with steroid) (Clone ID 5102951): 0.84 log2
Ave DE [log2] (C3A treated with steroid) (Clone ID 5326983): 0.94 log2

CC(=O)[C@H]1CC[C@H]2[C@@H]3CCC4=CC(=O)CC[C@]4(C)[C@H]3CC[C@]12C [progesterone]
Ave DE [log2] (C3A treated with steroid) (Clone ID 167081): −1.12 log2
Ave DE [log2] (C3A treated with steroid) (Clone ID 1323327): 0.83 log2
Ave DE [log2] (C3A treated with steroid) (Clone ID 1600180): 1.06 log2
Ave DE [log2] (C3A treated with steroid) (Clone ID 1816768): 0.28 log2
Ave DE [log2] (C3A treated with steroid) (Clone ID 2655279): −1.03 log2
Ave DE [log2] (C3A treated with steroid) (Clone ID 2753065): 0.78 log2
Ave DE [log2] (C3A treated with steroid) (Clone ID 3408804): −1.16 log2
Ave DE [log2] (C3A treated with steroid) (Clone ID 3528232): 0.99 log2
Ave DE [log2] (C3A treated with steroid) (Clone ID 3876612): 0.26 log2

C[C@H]1C[C@H]2[C@@H]3CCC4=CC(=O)C=C[C@]4(C)[C@@]3(Cl)[C@@H](O)C[C@]2(C)[C@@]1(O)C(=O)CO [beclomethasane]
Ave DE [log2] (C3A treated with steroid) (Clone ID 5398701): 0.82 log2
